{
  "source": "patent US9980936B2",
  "about": "“BH4 antagonists and methods related thereto” (Emory University, priority 2014, dated 2018)",
  "key": {"Mc1-1": {"target": "Mc1-1 (Homo sapiens, UniProt Q07820)", "sequence (Q07820 whole entry)": "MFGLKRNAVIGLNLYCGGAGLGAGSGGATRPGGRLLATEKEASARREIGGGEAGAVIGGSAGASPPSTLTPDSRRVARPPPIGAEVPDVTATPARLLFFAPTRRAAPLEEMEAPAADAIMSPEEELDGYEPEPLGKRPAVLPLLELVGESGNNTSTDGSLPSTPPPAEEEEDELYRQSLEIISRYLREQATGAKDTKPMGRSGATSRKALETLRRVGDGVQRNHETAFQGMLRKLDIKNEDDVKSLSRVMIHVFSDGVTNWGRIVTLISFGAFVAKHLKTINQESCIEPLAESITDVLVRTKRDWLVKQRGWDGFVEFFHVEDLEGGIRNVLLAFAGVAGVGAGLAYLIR", "assay": "binding to other Bcl2 family members"}, "[1]": {"system": "H1299 cells or isolated mitochondria", "assay": "H1299 cells or isolated mitochondria expressing WT, ΔBH3 Bcl2 or vector: IP and Cyt c release", "type": "cell-based", "experimental": "To further test whether the BH3 domain of Bcl2 is important for BDA-366 activation of Bax, purified recombinant WT and the BH3 deletion (ΔBH3) mutant Bcl2 proteins were incubated with purified Bax protein in the absence or presence of BDA-366, followed by IP with 6A7 antibody. […] To test this at the cellular or mitochondrial level, WT, ΔBH3 Bcl2 mutant and empty vector (pCIneo) were transfected into H1299 cells that express undetectable levels of endogenous Bcl2 but high levels of endogenous Bax. Cells or isolated mitochondria from these cells were treated with BDA-2, followed by IP with Bcl2 BH3 or 6A7 antibody, respectively.\nTo further test whether BDA-366 induces Cyt c release from mitochondria in a Bcl2 dependent fashion, mitochondria were isolated from H1299 cells expressing WT, ΔBH3 mutant Bcl2 or vector-only control. The isolated mitochondria were treated with BDA-366 (1 μM) for 30 min at 30° C. After centrifugation, Cyt c in the supernatant (i.e. Cyt c release) was analyzed by Western blot."}, "Bcl-XL": {"target": "Bcl-XL (Homo sapiens, UniProt Q07817)", "sequence (Q07817 whole entry, species assumed)": "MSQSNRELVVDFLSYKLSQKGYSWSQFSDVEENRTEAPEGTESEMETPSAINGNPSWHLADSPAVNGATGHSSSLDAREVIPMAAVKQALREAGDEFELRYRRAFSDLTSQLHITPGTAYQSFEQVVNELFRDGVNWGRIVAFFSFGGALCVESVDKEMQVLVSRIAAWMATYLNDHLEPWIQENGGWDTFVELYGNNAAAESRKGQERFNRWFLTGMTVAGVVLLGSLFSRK", "assay": "binding to other Bcl2 family members"}, "H460 cells": {"system": "H460 cells", "assay": "H460 cells: Bcl2/BH3 immunofluorescence, Bcl2 expression, mitochondrial dysfunction", "type": "cell-based"}, "in vivo": {"assay": "in vivo", "experimental": "In order to define the appropriate doses for in vivo experimentation, the maximum tolerated dose (MTD) was determined. Nu/Nu nude mice were treated in groups of 6 per dose level with increasing doses of BDA-366 (10-50 mg/kg/d) intraperitoneally (i.p.) for up to 12 days. […] Standard single-dose MTD treatment in normal C57BL/6 mice were measured. […] 10% of single dose MTD can usually be considered as the maximum therapeutic dose (30˜40 mg/kg) for continuous treatment."}},
  "note": "Where two headings read alike, the source gives them in different places.",
  "data": [
    {"smiles": "CCN(CC)CC(O)CNc1ccc(NCC2CO2)c2c1C(=O)c1ccccc1C2=O", "note": "(stereo not shown) [BDA-366, 1-((3-(diethylamino)-2-hydroxypropyl)amino)-4-((oxiran-2-ylmethyl)amino)anthracene-9,10-dione]", "values": [
      {"measurement": "binding to Mc1-1", "setting": "Mc1-1", "result": "failed to bind"},
      {"measurement": "binding to Mc1-1", "setting": "Mc1-1; listed as BDA-2", "result": "did not bind"},
      {"measurement": "Cyt c release from isolated mitochondria", "setting": "[1]; WT Bcl2, 1 μM, 30 min at 30° C.", "result": "induced Cyt c release"},
      {"measurement": "Bcl2 conformational change and Bax activation", "setting": "[1]; cells or isolated mitochondria containing WT Bcl2", "result": "induced Bcl2 conformational change in association with Bax activation"},
      {"measurement": "Bcl2 conformational change and Bax activation", "setting": "[1]; ΔBH3 Bcl2 mutant or vector-only control", "result": "not"},
      {"measurement": "binding to Bcl-XL", "setting": "Bcl-XL", "result": "failed to bind"},
      {"measurement": "binding to Bcl-XL", "setting": "Bcl-XL; listed as BDA-2", "result": "did not bind"},
      {"measurement": "Bcl2 expression level", "setting": "H460 cells", "result": "did not significantly affect Bcl2 expression level"},
      {"measurement": "Bcl2 immunofluorescence with Bcl2/BH3-domain specific antibody", "setting": "H460 cells", "result": "enhanced significantly"},
      {"measurement": "mitochondrial dysfunction and apoptosis", "setting": "H460 cells; MitoSOX red staining, Cyt c release, PARP cleavage", "result": "resulted in mitochondrial dysfunction"},
      {"measurement": "time to death of mice", "setting": "in vivo; C57BL/6, mouse, 400 mg/kg", "result": 4, "unit": "days"},
      {"measurement": "MTD", "setting": "in vivo; C57BL/6, mouse, maximum therapeutic dose for continuous treatment (10% of single dose MTD)", "result": "30 to 40", "unit": "mg/kg"},
      {"measurement": "MTD", "setting": "in vivo; C57BL/6, mouse, single dose MTD", "result": "300 to 400", "unit": "mg/kg"},
      {"measurement": "ALT and AST", "setting": "in vivo; mouse, 400 mg/kg", "result": "significantly enhanced"},
      {"measurement": "pathological analysis for all organs", "setting": "in vivo; mouse, 400 mg/kg", "result": "microsteatosis in the liver and atrophic white pulp in the spleen"},
      {"measurement": "weight loss or other toxicities (hematologic, liver and kidney functions)", "setting": "in vivo; mouse, ip, 300 mg/kg", "result": "did not cause weight loss or other toxicities"}
    ]}
  ]
}
